Measurements published in patent US20060069132A1, “Azolecarboxamide herbicides” (priority 2004, published 2006).

How the values were obtained:
[1] = test system: giant foxtail; experiment: Test B pre-/postemergence herbicide test; type: in vivo, Setaria faberi; settings: for Plant response rating (0 to 100 scale), Foxtail, Giant: 0 is no effect, 100 is complete control, preemergence
In short: (§1)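 Seeds were planted and treated preemergence with compounds formulated in a non-phytotoxic solvent mixture containing surfactant, while plants at the 1- to 4-leaf stage (2 to 18 cm) received postemergence sprays. Flooded paddy plants were grown to the 2-leaf stage. After 13 to 15 days in a greenhouse, injury was visually rated 0–100 against untreated controls.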

[2] = test system: ducksalad; experiment: Test B flooded paddy test; type: in vivo, Heteranthera limosa; settings: 1000 g ai/ha, scale 0 to 100 (0 no effect, 100 complete control)
In short: (§2)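 Postemergence plants were sprayed with formulated test chemicals at 2 to 18 cm height (1- to 4-leaf stage); paddy species were grown to the 2-leaf stage. After 13 to 15 days in a greenhouse, injury was rated visually against untreated controls on a 0–100 scale (0 = no effect, 100 = complete control).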

[3] = test system: wheat; experiment: Test B postemergence herbicide test; type: in vivo, Triticum aestivum; set-up: key to Wheat plant response rating: 0 = no effect, 100 = complete control
In short: (§3)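 Scale 0–100: zero equals no visible effect, 100 complete control, judged by eye relative to controls. Timing: 13 to 15 days in greenhouse post-treatment. Growth stage at spraying: two leaves (paddy) or one to four leaves, 2–18 cm (postemergence).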

[4] = test system: barnyardgrass; experiment: Test B pre-/postemergence herbicide test; type: in vivo, Echinochloa crus-galli; settings: for Plant response rating (0 to 100 scale), Barnyardgrass: 0 is no effect, 100 is complete control, preemergence; for Barnyardgrass plant response rating: Postemergence, scale 0 (no effect) to 100 (complete control)
In short: as §1

[5] = test system: corn; experiment: Test B pre-/postemergence herbicide test; type: in vivo, Zea mays; settings: for Plant response rating (0 to 100 scale), Corn: 0 is no effect, 100 is complete control, preemergence
In short: as §1

[6] = test system: morningglory; experiment: Test B pre-/postemergence herbicide test; type: in vivo, Ipomoea coccinea; settings: for Plant response rating (0 to 100 scale), Morningglory: 0 is no effect, 100 is complete control, preemergence
In short: as §1

[7] = test system: barnyardgrass; experiment: Test B flooded paddy test; type: in vivo, Echinochloa crus-galli; settings: 1000 g ai/ha, scale 0 to 100 (0 no effect, 100 complete control)
In short: as §2

[8] = test system: Surinam grass; experiment: Test B pre-/postemergence herbicide test; type: in vivo, Urochloa decumbens; settings: for Plant response rating (0 to 100 scale), Surinam Grass: 0 is no effect, 100 is complete control, preemergence
In short: as §1

[9] = test system: large crabgrass; experiment: Test B pre-/postemergence herbicide test; type: in vivo, Digitaria sanguinalis; settings: for Plant response rating (0 to 100 scale), Crabgrass, Large: 0 is no effect, 100 is complete control, preemergence
In short: as §1

[10] = test system: blackgrass; experiment: Test B postemergence herbicide test; type: in vivo, Alopecurus myosuroides
In short: as §2

[11] = test system: velvetleaf; experiment: Test B pre-/postemergence herbicide test; type: in vivo, Abutilon theophrasti; settings: for Plant response rating (0 to 100 scale), Velvetleaf: 0 is no effect, 100 is complete control, preemergence
In short: as §1

[12] = test system: lambsquarters; experiment: Test B pre-/postemergence herbicide test; type: in vivo, Chenopodium album; settings: for Plant response rating (0 to 100 scale), Lambsquarters: 0 is no effect, 100 is complete control, preemergence
In short: as §1

[13] = test system: rice; experiment: Test B flooded paddy test; type: in vivo, Oryza sativa; settings: 1000 g ai/ha, scale 0 to 100 (0 no effect, 100 complete control)
In short: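 Visual ratings, 0 (no effect) to 100 (complete control), made versus controls after 13–15 d greenhouse. Paddy plants treated at 2-leaf stage; postemergence plants at 1- to 4-leaf stage, 2–18 cm tall.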

[14] = test system: small flower umbrella sedge; experiment: Test B flooded paddy test; type: in vivo, Cyperus difformis; settings: 1000 g ai/ha, scale 0 to 100 (0 no effect, 100 complete control)
In short: as §2

[15] = test system: pigweed; experiment: Test B pre-/postemergence herbicide test; type: in vivo, Amaranthus retroflexus; settings: for Plant response rating (0 to 100 scale), Pigweed: 0 is no effect, 100 is complete control, preemergence
In short: as §1

[16] = test system: cocklebur; experiment: Test B pre-/postemergence herbicide test; type: in vivo, Xanthium strumarium; settings: for Plant response rating (0 to 100 scale), Cocklebur: 0 is no effect, 100 is complete control, preemergence
In short: as §1

[17] = test system: wild oat; experiment: Test B postemergence herbicide test; type: in vivo, Avena fatua
In short: as §3

[18] = Postemergence, 500 g ai/ha, scale 0 (no effect) to 100 (complete control)
[19] = postemergence, 125 g ai/ha, scale 0 to 100
[20] = 500 g ai/ha, scale 0 to 100, 0 no effect, 100 complete control, preemergence

SMILES: CCOC(=O)c1cncc(NC(=O)c2nn(C(C)(C)C)nc2C)c1 [Compound 422]
- Plant response rating (0 to 100 scale), Foxtail, Giant ([1]; 125 g ai/ha): 0
- Foxtail, Giant plant response rating [1, 18]: 0
- Foxtail, Giant plant response rating [1, 19]: 0
- Ducksalad plant response rating [2]: 20
- Wheat plant response rating [3, 20]: 0
- Wheat plant response rating [3, 18]: 0
- Wheat plant response rating [3, 19]: 0
- Plant response rating (0 to 100 scale), Barnyardgrass ([4]; 125 g ai/ha): 0
- Barnyardgrass plant response rating ([4]; 125 g ai/ha): 0
- Barnyardgrass plant response rating ([4]; 500 g ai/ha): 0
- Plant response rating (0 to 100 scale), Corn ([5]; 125 g ai/ha): 0
- Corn plant response rating [5, 18]: 0
- Corn plant response rating [5, 19]: 0
- Plant response rating (0 to 100 scale), Morningglory ([6]; 125 g ai/ha): 0
- Morningglory plant response rating [6, 18]: 0
- Morningglory plant response rating [6, 19]: 0
- Barnyardgrass plant response rating [7]: 30
- Plant response rating (0 to 100 scale), Surinam Grass ([8]; 125 g ai/ha): 0
- Surinam Grass plant response rating [8, 18]: 0
- Surinam Grass plant response rating [8, 19]: 0
- Plant response rating (0 to 100 scale), Crabgrass, Large ([9]; 125 g ai/ha): 0
- Crabgrass, Large plant response rating [9, 18]: 0
- Crabgrass, Large plant response rating [9, 19]: 0
- Blackgrass plant response rating [10, 18]: 20
- Blackgrass plant response rating [10, 19]: 20
- Plant response rating (0 to 100 scale), Velvetleaf ([11]; 125 g ai/ha): 0
- Velvetleaf plant response rating [11, 18]: 0
- Velvetleaf plant response rating [11, 19]: 0
- Plant response rating (0 to 100 scale), Lambsquarters ([12]; 125 g ai/ha): 0
- Lambsquarters plant response rating [12, 18]: 0
- Lambsquarters plant response rating [12, 19]: 0
- Rice plant response rating [13]: 30
- Sedge, Umbrella plant response rating [14]: 70
- Plant response rating (0 to 100 scale), Pigweed ([15]; 125 g ai/ha): 0
- Pigweed plant response rating [15, 18]: 0
- Pigweed plant response rating [15, 19]: 0
- Plant response rating (0 to 100 scale), Cocklebur ([16]; 125 g ai/ha): 0
- Cocklebur plant response rating [16, 18]: 0
- Cocklebur plant response rating [16, 19]: 0
- Oat, Wild plant response rating [17, 18]: 0
- Oat, Wild plant response rating [17, 19]: 0

SMILES: Cc1nn(C(C)(C)C)nc1C(=O)Nc1cc(C(=O)N(C)C)ccn1 [Compound 423]
- Plant response rating (0 to 100 scale), Foxtail, Giant ([1]; 125 g ai/ha): 90
- Foxtail, Giant plant response rating [1, 18]: 30
- Foxtail, Giant plant response rating [1, 19]: 20
- Ducksalad plant response rating [2]: 50
- Wheat plant response rating [3, 20]: 100
- Wheat plant response rating [3, 18]: 0
- Wheat plant response rating [3, 19]: 0
- Plant response rating (0 to 100 scale), Barnyardgrass ([4]; 125 g ai/ha): 90
- Barnyardgrass plant response rating ([4]; 125 g ai/ha): 10
- Barnyardgrass plant response rating ([4]; 500 g ai/ha): 30
- Plant response rating (0 to 100 scale), Corn ([5]; 125 g ai/ha): 30
- Corn plant response rating [5, 18]: 20
- Corn plant response rating [5, 19]: 10
- Plant response rating (0 to 100 scale), Morningglory ([6]; 125 g ai/ha): 30
- Morningglory plant response rating [6, 18]: 80
- Morningglory plant response rating [6, 19]: 40
- Barnyardgrass plant response rating [7]: 80
- Plant response rating (0 to 100 scale), Surinam Grass ([8]; 125 g ai/ha): 90
- Surinam Grass plant response rating [8, 18]: 30
- Surinam Grass plant response rating [8, 19]: 10
- Plant response rating (0 to 100 scale), Crabgrass, Large ([9]; 125 g ai/ha): 100
- Crabgrass, Large plant response rating [9, 18]: 50
- Crabgrass, Large plant response rating [9, 19]: 10
- Blackgrass plant response rating [10, 18]: 60
- Blackgrass plant response rating [10, 19]: 30
- Plant response rating (0 to 100 scale), Velvetleaf ([11]; 125 g ai/ha): 90
- Velvetleaf plant response rating [11, 18]: 50
- Velvetleaf plant response rating [11, 19]: 40
- Plant response rating (0 to 100 scale), Lambsquarters ([12]; 125 g ai/ha): 100
- Lambsquarters plant response rating [12, 18]: 70
- Lambsquarters plant response rating [12, 19]: 50
- Rice plant response rating [13]: 60
- Sedge, Umbrella plant response rating [14]: 70
- Plant response rating (0 to 100 scale), Pigweed ([15]; 125 g ai/ha): 100
- Pigweed plant response rating [15, 18]: 60
- Pigweed plant response rating [15, 19]: 40
- Plant response rating (0 to 100 scale), Cocklebur ([16]; 125 g ai/ha): 20
- Cocklebur plant response rating [16, 18]: 30
- Cocklebur plant response rating [16, 19]: 10
- Oat, Wild plant response rating [17, 18]: 30
- Oat, Wild plant response rating [17, 19]: 0
